ChEMBL document CHEMBL3393050, “Fine tuning of 4,6-bisphenyl-2-(3-alkoxyanilino)pyrimidine focusing on the activity-sensitive aminoalkoxy moiety for a therapeutically useful inhibitor of receptor for advanced glycation end products (RAGE)” (Bioorg Med Chem, 2015)
Calls of active or inactive are those of the source. No cut-off for these calls is given here.

test system: not listed separately; assay: Kinetic solubility in DMSO solution at pH 4 by nephelometry; format: physicochemical; conditions: read-out: Kinetic_solubility

| SMILES | solubility kinetic [µM] |
| --- | --- |
| CCN(CC)CCOc1cccc(Nc2nc(-c3ccc(Cl)cc3)cc(-c3ccc(Cl)cc3)n2)c1.Cl | 372 |
| CN(C)C1CCN(CCOc2cccc(Nc3nc(-c4ccc(Cl)cc4)cc(-c4ccc(Cl)cc4)n3)c2)C1.Cl (stereo unspecified) | > 500 |

test system: not listed separately; assay: Kinetic solubility in DMSO solution at pH 7.4 by nephelometry; format: physicochemical; conditions: read-out: Kinetic_solubility

| SMILES | solubility kinetic [µM] |
| --- | --- |
| CN(C)C1CCN(CCOc2cccc(Nc3nc(-c4ccc(Cl)cc4)cc(-c4ccc(Cl)cc4)n3)c2)C1.Cl (stereo unspecified) | 28.2 |

biological target: Advanced glycosylation end product-specific receptor (Homo sapiens) (UniProt Q15109); assay: Inhibition of biotinylated human RAGE assessed as bound amyloid beta level at 20 uM after 60 mins by ELISA relative to control; conditions: not given
Sequence (Q15109 whole entry): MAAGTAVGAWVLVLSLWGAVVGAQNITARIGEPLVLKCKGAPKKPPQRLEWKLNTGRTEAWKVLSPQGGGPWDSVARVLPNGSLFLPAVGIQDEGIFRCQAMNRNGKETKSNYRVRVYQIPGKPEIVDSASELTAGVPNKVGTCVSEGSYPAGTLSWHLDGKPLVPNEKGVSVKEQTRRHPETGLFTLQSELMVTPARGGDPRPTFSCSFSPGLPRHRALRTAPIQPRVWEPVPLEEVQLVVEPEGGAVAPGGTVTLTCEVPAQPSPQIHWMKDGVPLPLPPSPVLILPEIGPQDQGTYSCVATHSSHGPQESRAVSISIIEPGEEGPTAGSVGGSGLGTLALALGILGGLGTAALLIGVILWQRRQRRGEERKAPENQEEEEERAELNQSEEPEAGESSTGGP

| SMILES | inhibition |
| --- | --- |
| COC(=O)CCOc1cccc(Nc2nc(-c3ccc(Cl)cc3)cc(-c3ccc(Cl)cc3)n2)c1 | inactive |
| Clc1ccc(-c2cc(-c3ccc(Cl)cc3)nc(Nc3cccc(OCCN4CCSCC4)c3)n2)cc1 | inactive |
| CCOCCOc1cccc(Nc2nc(-c3ccc(Cl)cc3)cc(-c3ccc(Cl)cc3)n2)c1 | inactive |
| CO/N=C/CCOc1cccc(Nc2nc(-c3ccc(Cl)cc3)cc(-c3ccc(Cl)cc3)n2)c1 | inactive |
| CONC(=O)CCOc1cccc(Nc2nc(-c3ccc(Cl)cc3)cc(-c3ccc(Cl)cc3)n2)c1 | inactive |
| CON(C)C(=O)CCOc1cccc(Nc2nc(-c3ccc(Cl)cc3)cc(-c3ccc(Cl)cc3)n2)c1 | inactive |
| O=C1CCCN1CCOc1cccc(Nc2nc(-c3ccc(Cl)cc3)cc(-c3ccc(Cl)cc3)n2)c1 | inactive |
| O=C(O)CCOc1cccc(Nc2nc(-c3ccc(Cl)cc3)cc(-c3ccc(Cl)cc3)n2)c1 | inactive |
| O=C1CCN(CCOc2cccc(Nc3nc(-c4ccc(Cl)cc4)cc(-c4ccc(Cl)cc4)n3)c2)CC1 | inactive |
| Clc1ccc(-c2cc(-c3ccc(Cl)cc3)nc(Nc3cccc(OCCN4CCOCC4)c3)n2)cc1 | inactive |

same assay, conditions: values are per cent of control

| SMILES | residual binding, % of control [%] |
| --- | --- |
| CN1CCN(c2cccc(Nc3nc(-c4ccc(Cl)cc4)cc(-c4ccc(Cl)cc4)n3)c2)CC1 | 74 |
| CC(C)(C)OC(=O)NC1CCN(CCOc2cccc(Nc3nc(-c4ccc(Cl)cc4)cc(-c4ccc(Cl)cc4)n3)c2)C1 (stereo unspecified) | 46 |
| COC1CCCN(CCOc2cccc(Nc3nc(-c4ccc(Cl)cc4)cc(-c4ccc(Cl)cc4)n3)c2)C1 (stereo unspecified) | 48 |
| CCN(CC)CCCOc1cccc(Nc2nc(-c3ccc(Cl)cc3)cc(-c3ccc(Cl)cc3)n2)c1 | 84 |
| OC1CCCN(CCOc2cccc(Nc3nc(-c4ccc(Cl)cc4)cc(-c4ccc(Cl)cc4)n3)c2)C1 (stereo unspecified) | 52 |
| CCN(CCO)CCOc1cccc(Nc2nc(-c3ccc(Cl)cc3)cc(-c3ccc(Cl)cc3)n2)c1 | 101 |
| CN1CCN(CCOc2cccc(Nc3nc(-c4ccc(Cl)cc4)cc(-c4ccc(Cl)cc4)n3)c2)CC1 | 71 |
| CN(C)C1CCN(CCOc2cccc(Nc3nc(-c4ccc(Cl)cc4)cc(-c4ccc(Cl)cc4)n3)c2)C1.Cl (stereo unspecified) | 143 |
| NC1CCN(CCOc2cccc(Nc3nc(-c4ccc(Cl)cc4)cc(-c4ccc(Cl)cc4)n3)c2)C1 (stereo unspecified) | 106 |
| CCN(CCOC)CCOc1cccc(Nc2nc(-c3ccc(Cl)cc3)cc(-c3ccc(Cl)cc3)n2)c1 | 88 |
| CN(C)CCOc1cccc(Nc2nc(-c3ccc(Cl)cc3)cc(-c3ccc(Cl)cc3)n2)c1 | 24 |
| Clc1ccc(-c2cc(-c3ccc(Cl)cc3)nc(Nc3cccc(OCCN4CCCCC4)c3)n2)cc1 | 112 |
| Clc1ccc(-c2cc(-c3ccc(Cl)cc3)nc(Nc3cccc(OCCN4CCCC4)c3)n2)cc1 | 114 |
